The text below walks through data of patent US11584714B2 (priority 2018, dated 2023).

Like-named read-outs stand apart in the source and are kept apart here.

The target in one assay is Thrombin (Homo sapiens (Human), UniProt P00734). Put plainly: Thrombin inhibition (Ki). The format is biochemical.
The next assay has as its target MASP-2 (Homo sapiens (Human), UniProt O00187). As to the kind of experiment: MASP-2 inhibition (Ki). The format is biochemical.
A further assay deals with α-chymotrypsin (Bos taurus (Bovine), UniProt P00766, DEL14-15/DEL147-148). Particulars: cited from earlier work.

Chain of MASP-2 (O00187 16-686): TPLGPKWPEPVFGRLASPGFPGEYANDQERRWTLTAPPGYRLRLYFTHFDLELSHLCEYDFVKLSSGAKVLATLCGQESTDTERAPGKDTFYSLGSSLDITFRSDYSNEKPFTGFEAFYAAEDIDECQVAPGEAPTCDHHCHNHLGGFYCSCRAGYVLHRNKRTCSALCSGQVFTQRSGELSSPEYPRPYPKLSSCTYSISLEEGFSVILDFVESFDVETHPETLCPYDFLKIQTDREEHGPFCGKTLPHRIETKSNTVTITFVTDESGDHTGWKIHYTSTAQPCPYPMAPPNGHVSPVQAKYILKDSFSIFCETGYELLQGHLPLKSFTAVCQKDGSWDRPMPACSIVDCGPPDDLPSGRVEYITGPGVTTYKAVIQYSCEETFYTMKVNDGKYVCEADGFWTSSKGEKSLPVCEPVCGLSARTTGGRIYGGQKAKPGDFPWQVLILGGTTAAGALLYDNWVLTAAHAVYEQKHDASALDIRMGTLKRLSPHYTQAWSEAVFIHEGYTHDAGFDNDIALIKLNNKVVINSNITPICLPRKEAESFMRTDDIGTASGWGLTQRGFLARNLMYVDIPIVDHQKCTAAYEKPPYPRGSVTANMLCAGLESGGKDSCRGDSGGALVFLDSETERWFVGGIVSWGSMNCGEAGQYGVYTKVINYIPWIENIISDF

On to `COc1ccccc1C1=N/C(=C\c2cc(OC)c(OC)c(OC)c2)C(=O)O1` [compound 4], for which the Ki on Thrombin (read-out: Thrombin Ki) was 25 to 100 µM; at MASP-2, below 10 µM. Taken in the same sequence, the figures for `O=C1OC(/C=C/c2ccccc2)=NC/1=C\c1ccco1` [compound 6] were 25 to 100 µM and below 10 µM. Taken in the same sequence, the figures for `O=C(NNC(=O)c1cc2ccccc2cc1O)c1ccco1` [compound 7] were below 10 µM and below 10 µM. Taken in the same sequence, the figures for `Cc1c(C(=O)Nc2ccccc2C(=O)O)cccc1[N+](=O)[O-]` [compound 9] were below 10 µM and below 10 µM. Consider `O=c1oc(-c2cccs2)nc2ccccc12` [compound 10], for which the Ki is 25 to 100 µM on Thrombin (read-out: Thrombin Ki) and below 10 µM on MASP-2.

For the compound `O=c1oc(-c2ccco2)nc2cc(Cl)ccc12` [compound 11], on Thrombin, the “Thrombin Ki (μM)” value is “No Activity”. On MASP-2, this compound came in with a Ki below 10 µM. For the compound `Cc1cc(=O)oc2cc(OC(=O)c3ccco3)ccc12` [compound 12], the Ki at Thrombin (read-out: Thrombin Ki) and at MASP-2 was below 10 µM in each case.

For the compound `CCOC(=O)c1ccc2c(c1)C1C=CCC1C(C(=O)O)N2` (stereo not shown) [compound 13], the “Thrombin Ki (μM)” value at Thrombin is “No activity”. Also, the Ki on MASP-2 lay in the range of 25 to 100 µM. For the compound `O=c1oc(-c2ccccc2[N+](=O)[O-])nc2ccccc12` [compound 14], the Ki at Thrombin (read-out: Thrombin Ki) and on MASP-2 was below 10 µM in each case. With `COc1cccc2c1NC(C(=O)O)C1CC=CC21` (stereo not shown) [compound 15], the “Thrombin Ki (μM)” value at Thrombin was “No activity”. On MASP-2, the Ki was 25 to 100 µM. Regarding `O=C(O)c1cc(N2N=C(C(F)(F)F)/C(=C\C=C\c3ccco3)C2=O)ccc1Cl` [compound 16], the “Thrombin Ki (μM)” value at Thrombin was “No activity”. On MASP-2, this compound returned a Ki of 25 to 100 µM. On to `Cc1c(/N=C/c2ccc(OC(=O)c3ccccn3)cc2)c(=O)n(-c2ccccc2)n1C` [compound 17], for which the Ki was 25 to 100 µM on Thrombin (read-out: Thrombin Ki) and below 10 µM at MASP-2. On the same counts, the results for `Cc1cccc2c(=O)oc(-c3ccccc3Cl)nc12` [compound 18] are below 10 µM and below 10 µM. On the same counts, the results for `O=c1oc(-c2ccco2)nc2scc(-c3cccs3)c12` [compound 19] are 25 to 100 µM and below 10 µM. For the compound `O=C(Oc1ccc([N+](=O)[O-])cc1)c1ccc(Br)o1` [compound 20], at Thrombin, the “Thrombin Ki (μM)” value is reported as “No Activity”. For the same compound, the Ki at MASP-2 was below 10 µM. Consider `O=Cc1ccc(OC(=O)c2ccco2)cc1` [compound 21], for which the Ki on Thrombin (read-out: Thrombin Ki) and on MASP-2 was below 10 µM each time. As for `O=C(O)C1Nc2c(O)cc(Cl)c([N+](=O)[O-])c2C2C=CCC12` (stereo not shown) [compound 22], the “Thrombin Ki (μM)” value on Thrombin is listed as “No Activity”. Further, the Ki at MASP-2 fell in the range of 10 to 25 µM. Taken in the same sequence, the figures for `CCCc1nnc(NC(CC)OC(=O)c2cc(C)nc3ccccc23)s1` (stereo not shown) [compound 23] were “No Activity” and below 10 µM. With `COC(=O)c1cn(C(=O)c2cc(OC)cc(OC)c2)nc1N` [compound 24], the Ki on Thrombin (read-out: Thrombin Ki) was 10 to 25 µM; on MASP-2, below 10 µM. Consider `CN(C)C(=S)Nc1ccccc1C(=O)O` [compound 25], for which, on Thrombin, the “Thrombin Ki (μM)” value is given as “No activity”. The compound also returned a Ki on MASP-2 of 25 to 100 µM.

As to `O=c1[nH]c2ccccc2c(=O)o1` [compound 26], the results for the Ki at Thrombin and at MASP-2 were 25 to 100 µM and below 10 µM, respectively.

Regarding `O=C(Oc1cccc([N+](=O)[O-])c1)c1ccco1` [compound 27], the Ki at Thrombin (read-out: Thrombin Ki) was 25 to 100 µM; at MASP-2, below 10 µM. As to `O=C(O)c1ccc2c(c1)C1C=CCC1C(C(=O)O)N2` (stereo not shown) [compound 28], the “Thrombin Ki (μM)” value on Thrombin was “No activity”. Moreover, at MASP-2, the Ki was 25 to 100 µM.

Turning to `O=C1NC(=S)NC(=O)C1=C/C=C/c1ccco1` [compound 29], the Ki at Thrombin (read-out: Thrombin Ki) is 25 to 100 µM; at MASP-2, below 10 µM. For `CC(=O)c1ccc2c(c1)C1C=CCC1C(C(=O)O)N2` (stereo not shown) [compound 30], at Thrombin, the “Thrombin Ki (μM)” value was “No activity”. This compound gave a Ki on MASP-2 of 25 to 100 µM. Taken in the same sequence, the figures for `COc1cc(/C=N/NC(=O)Cc2nnc(N)s2)ccc1OC(=O)c1ccco1` [compound 31] were “No activity” and below 10 µM. On the same counts, the results for `O=C(c1cccc2ccccc12)n1cccn1` [compound 32] are “No activity” and below 10 µM. Consider `CC(=O)Nc1ccc(OC(=O)c2ccccc2NC(=O)c2ccccc2Br)cc1` [compound 33], for which the Ki at Thrombin (read-out: Thrombin Ki) and on MASP-2 was below 10 µM each time. For `Cc1c(/N=C/c2ccc(OC(=O)c3ccco3)cc2)c(=O)n(-c2ccccc2)n1C` [compound 34], the Ki was 25 to 100 µM on Thrombin (read-out: Thrombin Ki) and below 10 µM at MASP-2.

As for `O=C(Nc1nc[nH]n1)c1cccc(I)c1` [compound 36], the results for the Ki at Thrombin (read-out: Thrombin Ki) and on MASP-2 were 25 to 100 µM and below 10 µM, respectively. Take `C/C=C/C=C/C(=O)Nc1ccccc1C(=O)O` [compound 37]: the “Thrombin Ki (μM)” value at Thrombin is given as “No activity”. For the same compound, the Ki on MASP-2 is 25 to 100 µM. For `Cc1ccc(S(=O)(=O)n2nc(OC(=O)c3ccco3)cc2N)cc1` [compound 39], the Ki on Thrombin (read-out: Thrombin Ki) is 10 to 25 µM; at MASP-2, below 10 µM.

With `COc1ccc(S(=O)(=O)n2nc(OC(=O)c3ccco3)cc2N)cc1` [compound 40], the Ki at Thrombin (read-out: Thrombin Ki) and at MASP-2 was below 10 µM each time. On to `CC(=O)c1ccc(OC(=O)c2ccco2)cc1` [compound 41], for which, on Thrombin, the “Thrombin Ki (μM)” value was “No activity”. The Ki on MASP-2 is below 10 µM. Turning to `Cc1sc2nc(-c3ccccc3F)oc(=O)c2c1C` [compound 42], the Ki was 25 to 100 µM at Thrombin (read-out: Thrombin Ki) and below 10 µM on MASP-2. On the same counts, the results for `CCc1cc2c(=O)oc(-c3ccccc3C)nc2s1` [compound 43] are 25 to 100 µM and below 10 µM.

With `Nc1cc(OC(=O)c2ccco2)nn1S(=O)(=O)c1ccc(F)cc1` [compound 44], the Ki on Thrombin (read-out: Thrombin Ki) was 25 to 100 µM; at MASP-2 it was below 10 µM. On the same counts, the results for `N#Cc1ccc(OC(=O)c2ccc(Br)o2)cc1` [compound 45] are 25 to 100 µM and below 10 µM. As to `Nc1nc2ccccc2[nH]1` [compound 46], at Thrombin, the “Thrombin Ki (μM)” value is “No activity”. The same compound displayed a Ki on MASP-2 of 25 to 100 µM. On the same counts, the results for `N=C(N)c1ccc(N)cc1` [compound 47] are “No activity” and 25 to 100 µM. Taken in the same sequence, the figures for `CN(C(=O)c1cc2ccccc2cc1C(=O)C(c1cccc2ccccc12)P(=O)(O)O)C1CCN(C(=O)c2ccccc2)CC1` (stereo not shown) [compound 51] were “No activity” and 10 to 25 µM.

With `N=C(N)c1ccc2ccccc2c1` [compound 53], the Ki at Thrombin (read-out: Thrombin Ki) is 10 to 25 µM; at MASP-2, below 10 µM. On to MeO-Suc-Ala-Ala-ProboroPhe-OH, for which the Ki on α-chymotrypsin was 0.00016 µM.
